21 compounds from patent US20250026778A1 (TIUMBIO CO., LTD., priority 2021, published 2025) can be followed below.

Some results are limits rather than exact numbers.

The target in one experiment is T1, his-galectin-3 (Homo sapiens, UniProt P17931).
T1 construct: purchased Abcam
T1 sequence (P17931 whole entry): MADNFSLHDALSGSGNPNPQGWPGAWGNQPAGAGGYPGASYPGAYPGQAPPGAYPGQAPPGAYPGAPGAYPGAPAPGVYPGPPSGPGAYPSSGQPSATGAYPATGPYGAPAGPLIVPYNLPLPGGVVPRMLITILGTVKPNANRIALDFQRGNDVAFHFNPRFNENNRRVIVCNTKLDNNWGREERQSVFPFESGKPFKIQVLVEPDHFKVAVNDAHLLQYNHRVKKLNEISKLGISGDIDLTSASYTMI
The experiment in a line: TR-FRET assay (in vitro galectin-3 binding inhibitory activity test). Particulars: Table 1; compound at 20 μM; 60 nM his-galectin-3, 15 nM biotin-ASF; read-out: % Inhibitory activity (at 20 μM). The method, boiled down: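 Compound is premixed with his-galectin-3 (60 nM final), then biotin-ASF (15 nM), Tb anti-His antibody (2 nM) and streptavidin-d2 (20 nM) are added. After at least 3.5 hours at RT in HEPES/NaCl buffer with Tween 20 and BSA, TR-FRET is read at 615/665 nm. DMSO serves as the uninhibited control, ASF omission as background.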
(In TR-FRET formats the signal depends on donor and acceptor labels being close together.)
Turning to `O=S1(=O)CCC(CO[C@@H]2[C@@H](n3cc(-c4cc(F)c(F)c(F)c4)nn3)[C@@H](O)[C@@H](CO)O[C@@]23CCCO3)CC1` [Compound A26, 4-((((5S,7R,8R,9S,10R)-8-hydroxy-7-(hydroxymethyl)-9-(4-(3,4,5-trifluorophenyl)-1H-1,2,3-triazol-1-yl)-1,6-dioxaspiro[4.5]decan-10-yl)oxy)methyl)tetrahydro-2H-thiopyran 1,1-dioxide], the inhibition at 20 µM lay within 25 to 50%.

As for `O=C(N[C@@H]1CCO[C@]12O[C@H](CO)[C@H](O)[C@H](n1cc(-c3cc(F)c(F)c(F)c3)nn1)[C@H]2O)c1ccc(-c2ccccc2)cc1` [Compound A131, N-((4R,5S,7R,8R,9S,10R)-8,10-dihydroxy-7-(hydroxymethyl)-9-(4-(3,4,5-trifluorophenyl)-1H-1,2,3-triazol-1-yl)-1,6-dioxaspiro[4.5]decan-4-yl)-[1.1′ biphenyl]-4-carboxamide], the inhibition at 20 µM is less than 25%.

Take `OC[C@H]1O[C@@]2(CCCCO2)[C@H](OCc2cccc(F)c2)[C@@H](n2cc(-c3cc(F)c(F)c(F)c3)nn2)[C@H]1O` [Compound A48, (2R,3R,4S,5R,6S)-5-((3-fluorobenzyl)oxy)-2-(hydroxymethyl)-4-(4-(3,4,5-trifluorophenyl)-1H-1,2,3-triazol-1-yl)-1,7-dioxaspiro[5.5]undecan-3-ol]: the inhibition at 20 µM was in the range of 25 to 50%.

For the compound `O=C(N[C@@H]1CCO[C@]12O[C@H](CO)[C@H](O)[C@H](n1cc(-c3cc(F)c(F)c(F)c3)nn1)[C@H]2O)C1(c2ccccc2)CC1` [Compound A114, N-((4R,5S,7R,8R,9S,10R)-8,10-dihydroxy-7-(hydroxymethyl)-9-(4-(3,4,5-trifluorophenyl)-1H-1,2,3-triazol-1-yl)-1,6-dioxaspiro[4.5]decan-4-yl)-1-phenylcyclopropanecarboxamide], the inhibition at 20 µM is less than 25%.

Regarding `OC[C@H]1O[C@@]2(CCCO2)[C@H](OCC(F)F)[C@@H](n2cc(-c3cc(F)c(F)c(F)c3)nn2)[C@H]1O` [Compound A27, (5S,7R,8R,9S,10R)-10-(2,2-difluoroethoxy)-7-(hydroxymethyl)-9-(4-(3,4,5-trifluorophenyl)-1H-1,2,3-triazol-1-yl)-1,6-dioxaspiro[4.5]decan-8-ol], the inhibition at 20 µM was in the range of 25 to 50%.

On to `CN(Cc1cccc(Cl)c1)[C@@H]1CCO[C@]12O[C@H](CO)[C@H](O)[C@H](n1cc(-c3cc(F)c(F)c(F)c3)nn1)[C@H]2O` [Compound A103, (4R,5S,7R,8R,9S,10R)-4-((3-chlorobenzyl)(methyl)amino)-7-(hydroxymethyl)-9-(4-(3,4,5-trifluorophenyl)-1H-1,2,3-triazol-1-yl)-1,6-dioxaspiro[4.5]decane-8,10-diol], for which the inhibition at 20 µM is less than 25%.

With `OC[C@H]1O[C@@]2(CCCCO2)[C@H](O)[C@@H](n2cc(-c3cc(F)c(F)c(F)c3)nn2)[C@H]1O` [Compound A24, (2R,3R,4S,5R,6S)-2-(hydroxymethyl)-4-(4-(3,4,5-trifluorophenyl)-1H-1,2,3-triazol-1-yl)-1,7-dioxaspiro[5.5]undecane-3,5-diol], the inhibition at 20 µM was in the range of 25 to 50%.

For `O=C(N[C@@H]1CCO[C@]12O[C@H](CO)[C@H](O)[C@H](n1cc(-c3cc(F)c(F)c(F)c3)nn1)[C@H]2O)c1ccc2ccccc2c1` [Compound A129, N-((4R,5S,7R,8R,9S,10R)-8,10-dihydroxy-7-(hydroxymethyl)-9-(4-(3,4,5-trifluorophenyl)-1H-1,2,3-triazol-1-yl)-1,6-dioxaspiro[4.5]decan-4-yl)-2-naphthamide], the inhibition at 20 µM was 50 to 75%.

For `O=C(O[C@@H]1[C@@H](n2cc(-c3cc(F)c(F)c(F)c3)nn2)[C@@H](O)[C@@H](CO)O[C@@]12CCCO2)c1ccccc1` [Compound A31, (5S,7R,8R,9S,10R)-8-hydroxy-7-(hydroxymethyl)-9-(4-(3,4,5-trifluorophenyl)-1H-1,2,3-triazol-1-yl)-1,6-dioxaspiro[4.5]decan-10-yl benzoate], the inhibition at 20 µM lay in the range of 25 to 50%.

The experiment is the same for the next values; noted with them: Table 2; compound at 20 μM; 60 nM his-galectin-3, 15 nM biotin-ASF.
On to `CC(C(=O)N[C@@H]1CCO[C@]12O[C@H](CO)[C@H](O)[C@H](n1cc(-c3cc(F)c(F)c(F)c3)nn1)[C@H]2O)c1cccc(Cl)c1` (single isomer, unassigned) [Compound A167], for which the “% Inhibitory activity (at 20 μM)” value is on record as “C (inhibition rate was 25%˜ to 50%˜ (exclusive of 50%))”.

The experiment is the same for the next values; noted with them: Table 2; compound at 20 μM; 60 nM his-galectin-3, 15 nM biotin-ASF; read-out: % Inhibitory activity (at 20 μM).
As to `O=C(c1cncs1)N1CCC[C@]2(C1)O[C@H](CO)[C@H](O)[C@H](n1cc(-c3cc(F)c(F)c(F)c3)nn1)[C@H]2O` [Compound A190, ((2R,3R,4S,5R,6R)-3,5-dihydroxy-2-(hydroxymethyl)-4-(4-(3,4,5-trifluorophenyl)-1H-1,2,3-triazol-1-yl)-1-oxa-8-azaspiro[5.5]undecan-8-yl)(thiazol-5-yl)methanone], the inhibition at 20 µM is less than 25%.

Turning to `O=C(N[C@@H]1CCO[C@]12O[C@H](CO)[C@H](O)[C@H](n1cc(-c3cc(F)c(F)c(F)c3)nn1)[C@H]2O)C1CCCc2ccccc21` (stereo partly drawn) [Compound A160, N-((4R,5S,7R,8R,9S,10R)-8,10-dihydroxy-7-(hydroxymethyl)-9-(4-(3,4,5-trifluorophenyl)-1H-1,2,3-triazol-1-yl)-1,6-dioxaspiro[4.5]decan-4-yl)-1,2,3,4-tetrahydronaphthalene-1-carboxamide], the inhibition at 20 µM lay in the range of 50 to 75%.

In the case of `O=C(N[C@@H]1CCO[C@]12O[C@H](CO)[C@H](O)[C@H](n1cc(-c3cc(F)c(F)c(F)c3)nn1)[C@H]2O)c1csc2ccc(F)cc12` [Compound A249, N-((4R,5S,7R,8R,9S,10R)-8,10-dihydroxy-7-(hydroxymethyl)-9-(4-(3,4,5-trifluorophenyl)-1H-1,2,3-triazol-1-yl)-1,6-dioxaspiro[4.5]decan-4-yl)-5-fluorobenzo[b]thiophene-3-carboxamide], the inhibition at 20 µM is more than 75%.

Take `O=C(c1cccc2ccccc12)N1CCC[C@]2(C1)O[C@H](CO)[C@H](O)[C@H](n1cc(-c3cc(F)c(F)c(F)c3)nn1)[C@H]2O` [Compound A185, ((2R,3R,4S,5R,6R)-3,5-dihydroxy-2-(hydroxymethyl)-4-(4-(3,4,5-trifluorophenyl)-1H-1,2,3-triazol-1-yl)-1-oxa-8-azaspiro[5.5]undecan-8-yl)(naphthalen-1-yl)methanone]: the inhibition at 20 µM was less than 25%.

Turning to `O=C(N[C@@H]1CCO[C@]12O[C@H](CO)[C@H](O)[C@H](n1cc(-c3cc(F)c(F)c(F)c3)nn1)[C@H]2O)c1cccc2c(Cl)cccc12` [Compound A169, 5-chloro-N-((4R,5S,7R,8R,9S,10R)-8,10-dihydroxy-7-(hydroxymethyl)-9-(4-(3,4,5-trifluorophenyl)-1H-1,2,3-triazol-1-yl)-1,6-dioxaspiro[4.5]decan-4-yl)-1-naphthamide], the inhibition at 20 µM is more than 75%.

Consider `O=C(N[C@@H]1CCO[C@]12O[C@H](CO)[C@H](O)[C@H](n1cc(-c3cc(F)c(F)c(F)c3)nn1)[C@H]2O)c1cnc2sccn12` [Compound A200, N-((4R,5S,7R,8R,9S,10R)-8,10-dihydroxy-7-(hydroxymethyl)-9-(4-(3,4,5-trifluorophenyl)-1H-1,2,3-triazol-1-yl)-1,6-dioxaspiro[4.5]decan-4-yl)imidazo[2,1-b]thiazole-5-carboxamide], for which the inhibition at 20 µM lay in the range of 50 to 75%.

With `O=C(N[C@@H]1CCO[C@]12O[C@H](CO)[C@H](O)[C@H](n1cc(-c3cc(F)c(F)c(F)c3)nn1)[C@H]2O)c1c[nH]c2ccc(Cl)cc12` [Compound A219, 5-chloro-N-((4R,5S,7R,8R,9S,10R)-8,10-dihydroxy-7-(hydroxymethyl)-9-(4-(3,4,5-trifluorophenyl)-1H-1,2,3-triazol-1-yl)-1,6-dioxaspiro[4.5]decan-4-yl)-1H-indole-3-carboxamide], the inhibition at 20 µM was in the range of 50 to 75%.

With `O=C(N[C@@H]1CCO[C@]12O[C@H](CO)[C@H](O)[C@H](n1cc(-c3cc(F)c(F)c(F)c3)nn1)[C@H]2O)c1cccc2ccc(Br)cc12` [Compound A211, 7-bromo-N-((4R,5S,7R,8R,9S,10R)-8,10-dihydroxy-7-(hydroxymethyl)-9-(4-(3,4,5-trifluorophenyl)-1H-1,2,3-triazol-1-yl)-1,6-dioxaspiro[4.5]decan-4-yl)-1-naphthamide], the inhibition at 20 µM is more than 75%.

The experiment is the same for the next values; noted with them: Table 3, found values; compound at 20 μM; 60 nM his-galectin-3, 15 nM biotin-ASF; read-out: % Inhibitory activity (at 20 μM).
`OC[C@H]1O[C@@]2(CCCCO2)[C@H](OCc2cccc(F)c2)[C@@H](n2cc(-c3cc(F)c(F)c(F)c3)nn2)[C@H]1O` [Compound A48, (2R,3R,4S,5R,6S)-5-((3-fluorobenzyl)oxy)-2-(hydroxymethyl)-4-(4-(3,4,5-trifluorophenyl)-1H-1,2,3-triazol-1-yl)-1,7-dioxaspiro[5.5]undecan-3-ol]: the inhibition at 20 µM is 43.7%.

In the case of `O=C(N[C@@H]1CCO[C@]12O[C@H](CO)[C@H](O)[C@H](n1cc(-c3cc(F)c(F)c(F)c3)nn1)[C@H]2O)c1csc2ccc(F)cc12` [Compound A249, N-((4R,5S,7R,8R,9S,10R)-8,10-dihydroxy-7-(hydroxymethyl)-9-(4-(3,4,5-trifluorophenyl)-1H-1,2,3-triazol-1-yl)-1,6-dioxaspiro[4.5]decan-4-yl)-5-fluorobenzo[b]thiophene-3-carboxamide], the inhibition at 20 µM was found to be 89.9%.

Regarding `O=C(N[C@@H]1CCO[C@]12O[C@H](CO)[C@H](O)[C@H](n1cc(-c3cc(F)c(F)c(F)c3)nn1)[C@H]2O)c1cnc2sccn12` [Compound A200, N-((4R,5S,7R,8R,9S,10R)-8,10-dihydroxy-7-(hydroxymethyl)-9-(4-(3,4,5-trifluorophenyl)-1H-1,2,3-triazol-1-yl)-1,6-dioxaspiro[4.5]decan-4-yl)imidazo[2,1-b]thiazole-5-carboxamide], the inhibition at 20 µM was 63.3%.

The same experiment, now with this note: read-out: % Inhibitory activity (at 20 μM), Table 1; compound at 20 μM; 60 nM his-galectin-3, 15 nM biotin-ASF.
Turning to `O=C(O)CO[C@@H]1[C@@H](n2cc(-c3cc(F)c(F)c(F)c3)nn2)[C@@H](O)[C@@H](CO)O[C@@]12CCCCO2` [Compound A54, 2-(((2R,3R,4S,5R,6S)-3-hydroxy-2-(hydroxymethyl)-4-(4-(3,4,5-trifluorophenyl)-1H-1,2,3-triazol-1-yl)-1,7-dioxaspiro[5.5]undecan-5-yl)oxy)acetic acid], the inhibition at 20 µM fell in the range of 25 to 50%.

Take `OC[C@H]1O[C@@]2(CCCO2)[C@H](OCc2cncc(F)c2)[C@@H](n2cc(-c3cc(F)c(F)c(F)c3)nn2)[C@H]1O` [Compound A84, (5S,7R,8R,9S,10R)-10-((5-fluoropyridin-3-yl)methoxy)-7-(hydroxymethyl)-9-(4-(3,4,5-trifluorophenyl)-1H-1,2,3-triazol-1-yl)-1,6-dioxaspiro[4.5]decan-8-ol]: the inhibition at 20 µM is less than 25%.

As for `O=C(Cc1cccc(Cl)c1)N1CCC[C@]2(C1)O[C@H](CO)[C@H](O)[C@H](n1cc(-c3cc(F)c(F)c(F)c3)nn1)[C@H]2O` [Compound A139, 2-(3-chlorophenyl)-1-((2R,3R,4S,5R,6R)-3,5-dihydroxy-2-(hydroxymethyl)-4-(4-(3,4,5-trifluorophenyl)-1H-1,2,3-triazol-1-yl)-1-oxa-8-azaspiro[5.5]undecan-8-yl)ethanone], the inhibition at 20 µM was less than 25%.
